Laboratory results from US5955337A, “DNA encoding GLS1” (Merck & Co., Inc., priority 1996, dated 1999).
Read-outs that look alike come from different tables or passages of the source. *1 amine or outer side, *2 acyl side, *3 side chain or, on linkers, in order; H or OH if unused. Where a SMILES comes first, the peptide text is derived from it. Bridges are numbered along the chain shown (N, C = ends). [ ]: non-standard residue; d: D form. The star is where a group is joined. dOrn(4R-OH,5R-OH) = O=C([C@@H](C[C@@H](O)[C@@H](O)N[*:3])N[*:1])[*:2]; Tetradecanoyl(10R,12S-Me2) = CC[C@H](C)C[C@H](C)CCCCCCCCC(=O)*; hTyr(3S-OH,4S-OH) = N[C@H](C(=O)O)[C@H](O)[C@@H](O)c1ccc(O)cc1; Pro(3S-OH,4S-Me) = C[C@H]1CN[C@H](C(=O)O)[C@H]1O; Gln(3R-OH) = NC(=O)C[C@@H](O)[C@H](N)C(=O)O; Hyp = O=C(O)[C@@H]1C[C@@H](O)CN1

Columns and labels:
X2180 (WT) = assay: Zone of growth inhibition assay, wild-type strain; type: cell-based, Saccharomyces cerevisiae; conditions: μg/Disc: L,733-560 20; L-688-786 10; Aculeacin 50; Papulacandin 50; Nikkomycin Z 10; Rapamycin 12.5
From the text: (§1) Mutations of the GLS1 gene, including but not limited to gls1-1 (strain MS1), gls1-2 (strain MS41) and gls1-3 (strain MS43), or disruptions or deletions of GLS1, are useful for screening for glucan synthase inhibitors. Such a screen relies on the increase in echinocandin-resistance and in papulacandin sensitivity of such mutants compared to an GLS1 wild-type strain. Any technique capable of detecting this difference in sensitivity can be used. A zone of inhibition assay on agar plates is particularly useful.
(§2) The GLS1 and the fks1-4 mutants can be incorporated into an assay to screen and classify antifungal compounds with chitin and glucan synthase inhibitory effects, based on their differential resistance/sensitivity to the echinocandins, papulacandin and Nikkomycin Z. The data from this assay and the sizes of the zones of growth inhibition in millimeter is given in the following table: […]

MS1 (gls1-1) = assay: Zone of growth inhibition assay, gls1-1 mutant; type: cell-based, Saccharomyces cerevisiae; conditions: μg/Disc: L,733-560 20; L-688-786 10; Aculeacin 50; Papulacandin 50; Nikkomycin Z 10; Rapamycin 12.5
From the text: as §1, §2

[1] = test system: Strain MS1 (gls1-1 mutant); assay: Effect of antifungal drugs on strain MS1 relative to wild-type parental strain; type: cell-based, Saccharomyces cerevisiae; conditions: FIG. 2, FIG. 10
Description: To quantitate the echinocandin sensitivity/resistance of the mutant strains, yeast cells grown to log phase were inoculated into 2 ml SC broth and incubated overnight at 28° C. A flat bottom 96-well microtiter plate was seeded with 75 μl of SC medium in columns 2 through 12. To column 1, 150 μl medium was added. Echinocandin (L-733,560) was prepared at a concentration of 30 μg/ml solution in sterile distilled water. An aliquot (75 μl) of echinocandin solution was added to column 3, and 75 μl from column 3 was transferred to column 4, followed by mixing of the contents of each well. 75 μl from column 4 was transferred into column 5, and the serial dilution was carried on to column 12 from which a 75 μl was discarded. A dilution of 6×10^5 cells/ml in URA drop out medium was prepared from the yeast strains. 75 μl cell suspension was then added to columns 2 through 12 giving 4.5×10^4 cells/well. The plates were incubated at 28° C. for 24-48 hr. Growth in the presence and absence of echinocandin was measured by absorbance at 600 nm.

MS14 (fks1-4) = assay: Zone of growth inhibition assay, fks1-4 mutant; type: cell-based, Saccharomyces cerevisiae; conditions: μg/Disc: L,733-560 20; L-688-786 10; Aculeacin 50; Papulacandin 50; Nikkomycin Z 10; Rapamycin 12.5
From the text: as §1, §2

Pneumocystis carinii = conditions: rat model of P. carinii pneumonia; Schmatz et al. 1990; cited from earlier work
[2] = test system: fks1-4 mutant (strain MS14); assay: Resistance/sensitivity of fks1-4 mutant relative to wild-type; type: cell-based, Saccharomyces cerevisiae; conditions: fks1-4 mutant vs wild-type
From the text: as §2

1,3-β-glucan synthase = biological target: T1, 1,3-β-glucan synthase (Saccharomyces cerevisiae, UniProt P06780); assay: biochemical
T1 construct: Membrane extracts were prepared from mutant and wild-type cells grown to logarithmic phase; endogenous in cells; host or cells: S. cerevisiae X2180-1A (wild-type) and MS1 (gls1-1 mutant), washed 100,000×g membrane pellet
T1 sequence (P38631 whole entry): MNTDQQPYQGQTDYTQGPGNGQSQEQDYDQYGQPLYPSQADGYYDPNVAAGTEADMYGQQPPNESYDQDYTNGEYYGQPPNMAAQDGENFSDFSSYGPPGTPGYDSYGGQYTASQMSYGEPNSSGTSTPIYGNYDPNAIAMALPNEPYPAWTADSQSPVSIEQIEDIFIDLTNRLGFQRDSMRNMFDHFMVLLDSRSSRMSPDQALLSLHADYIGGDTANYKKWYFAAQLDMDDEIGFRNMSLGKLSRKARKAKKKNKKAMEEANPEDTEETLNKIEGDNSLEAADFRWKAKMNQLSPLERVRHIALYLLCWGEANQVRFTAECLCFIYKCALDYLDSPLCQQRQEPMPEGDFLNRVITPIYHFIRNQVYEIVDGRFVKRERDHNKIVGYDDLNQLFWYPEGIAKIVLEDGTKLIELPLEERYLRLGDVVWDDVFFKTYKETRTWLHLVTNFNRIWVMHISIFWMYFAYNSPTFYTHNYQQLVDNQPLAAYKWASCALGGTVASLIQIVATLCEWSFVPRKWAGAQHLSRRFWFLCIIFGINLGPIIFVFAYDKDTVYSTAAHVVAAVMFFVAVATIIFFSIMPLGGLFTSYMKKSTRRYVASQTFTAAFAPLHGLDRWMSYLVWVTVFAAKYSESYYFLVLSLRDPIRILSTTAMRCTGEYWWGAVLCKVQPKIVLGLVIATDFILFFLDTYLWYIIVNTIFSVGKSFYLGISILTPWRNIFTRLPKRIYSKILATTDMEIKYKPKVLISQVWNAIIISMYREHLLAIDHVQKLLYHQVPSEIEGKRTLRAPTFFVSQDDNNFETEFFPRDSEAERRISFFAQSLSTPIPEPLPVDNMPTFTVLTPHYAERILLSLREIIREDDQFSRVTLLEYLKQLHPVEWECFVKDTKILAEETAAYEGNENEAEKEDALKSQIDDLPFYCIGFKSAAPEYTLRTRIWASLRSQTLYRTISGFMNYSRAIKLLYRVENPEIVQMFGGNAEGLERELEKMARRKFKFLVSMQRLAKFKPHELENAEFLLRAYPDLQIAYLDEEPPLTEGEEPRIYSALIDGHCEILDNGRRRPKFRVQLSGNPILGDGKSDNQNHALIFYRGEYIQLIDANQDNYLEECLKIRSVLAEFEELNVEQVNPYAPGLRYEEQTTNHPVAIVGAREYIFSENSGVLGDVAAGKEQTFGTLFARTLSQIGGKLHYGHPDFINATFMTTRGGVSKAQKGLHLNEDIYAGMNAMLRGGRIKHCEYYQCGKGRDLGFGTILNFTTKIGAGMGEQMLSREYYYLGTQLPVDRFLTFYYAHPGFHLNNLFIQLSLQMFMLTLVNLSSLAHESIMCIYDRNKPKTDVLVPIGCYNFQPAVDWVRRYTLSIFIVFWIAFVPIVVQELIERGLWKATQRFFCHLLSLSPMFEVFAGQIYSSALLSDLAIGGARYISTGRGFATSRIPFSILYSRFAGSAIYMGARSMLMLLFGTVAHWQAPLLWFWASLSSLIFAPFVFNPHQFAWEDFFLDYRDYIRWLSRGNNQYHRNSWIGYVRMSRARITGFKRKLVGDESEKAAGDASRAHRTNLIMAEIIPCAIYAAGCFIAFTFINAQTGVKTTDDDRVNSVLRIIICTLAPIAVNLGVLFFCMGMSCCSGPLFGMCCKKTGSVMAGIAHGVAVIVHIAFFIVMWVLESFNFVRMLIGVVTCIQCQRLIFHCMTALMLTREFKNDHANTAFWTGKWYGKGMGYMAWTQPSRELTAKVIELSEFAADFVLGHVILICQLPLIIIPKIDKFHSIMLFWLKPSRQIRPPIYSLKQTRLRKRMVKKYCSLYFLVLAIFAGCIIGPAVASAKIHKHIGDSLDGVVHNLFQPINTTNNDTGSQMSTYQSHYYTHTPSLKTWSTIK
T1 sequence (P06780 2-206): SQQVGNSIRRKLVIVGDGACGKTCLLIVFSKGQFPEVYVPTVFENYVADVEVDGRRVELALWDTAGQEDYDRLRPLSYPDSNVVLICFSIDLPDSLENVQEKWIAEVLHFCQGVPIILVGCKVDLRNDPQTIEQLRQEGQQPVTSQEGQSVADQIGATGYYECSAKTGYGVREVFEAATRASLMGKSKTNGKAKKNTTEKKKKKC
Description: Membrane extracts were prepared from mutant and wild-type cells grown to logarithmic phase (Kang and Cabib, PNAS, 83, 5808-5812, 1986). After homogenization with glass beads, unbroken cells and debris were removed by low speed centrifugation (1,000×g for 5 min). The supernatant fluids were centrifuged at 100,000×g for 60 min, and the resulting pellets were washed with 2.5 ml (per gram of wet cells) of buffer containing 0.05 M potassium phosphate (pH 7.5), 0.5 mM DTT, and 1.0 mM PMSF. The washed pellet was resuspended in the same buffer containing 5% glycerol. This protein extract served as the source for both 1,3-β-glucan synthase and the chitin synthases utilized in the enzymatic assays.
Protein concentrations were determined using BCA protein assay reagent kit (Pierce Corp.), utilizing bovine serum album (BSA; Pierce Corp.) as a standard. The 1,3-β-glucan synthase reactions were performed as previously described (Cabib, E., and M. S. Kang. 1987. Fungal 1,3-b-glucansynthase, Methods Enzymol. 138: 637-642). Briefly, an […] reaction contained 125 mM Tris HCL (pH7.5), 0.25 mM dithiothretol, 30 mM KF, 0.3 M glycerol, 0.23% BSA, 0.125 mM PMSF, 2 mM UDP-glucose, […] guanosine 5'-(g-thio) triphosphate (GTPγS), 0.1 nmol UDP-[^3 H] glucose (Amersham; 4.5 Ci/mmol;) plus […] of membrane protein extract. The reactions were performed in the presence of 0.0, 0.1, 0.5, 5, 25 and 50 mM L, 733-560 for dose titration of the drug. Following incubation at 25° C. for 150 minutes, the [^3 H]-glucose incorporated into trichloroacetic acid-insoluble material was collected onto glass fiber filters (102×258 mm) and measured using a betaplate liquid scintillation counter (Cambridge Technologies Inc.; series 2800 harvester) at 25% efficiency. The product of such reactions was verified by solubilization by laminarinase (Sigma, #L9259) but not by α-amylase (Sigma, #A2643).
To study activation of 1,3-β-glucan synthesis by GTPγS incorporation of UDP-glucose into 1,3-β-D glucans, in absence and in presence of 3.3 uM GTPγS was measured. […]

Molecule	size of the zone of growth inhibition, X2180 (WT) (X2180 (WT)) [millimeter]	size of the zone of growth inhibition, MS1 (gls1-1) (MS1 (gls1-1)) [millimeter]	sensitivity/resistance of MS1 cells compared with wild-type parental strain [1]	size of the zone of growth inhibition, MS14 (fks1-4) (MS14 (fks1-4)) [millimeter]	reduction of the number of cysts in the lungs of infected rats (Pneumocystis carinii)	fold more sensitive than wild-type, fks1-4 mutant (MS14) [2] [fold]	response of MS1 mutant enzymatic activity to increasing concentrations of GTPγS (1,3-β-glucan synthase; MS1 mutant membranes, FIG. 5)	fold induction at 3.3 µM (1,3-β-glucan synthase; read-out: stimulation of glucan synthesis by GTPγS, MS1 mutant enzyme)	fold induction at 3.3 µM (1,3-β-glucan synthase; read-out: stimulation of glucan synthesis by GTPγS, first value)
CCC(O)/C=C/C=C/C=C/C(=O)OC[C@H]1O[C@@H](O[C@H]2[C@H](OC(=O)/C=C/C=C/CC(O)/C(C)=C/C=C/CCC(C)CC)[C@@H](O)[C@@]3(OCc4cc(O)cc(O)c43)O[C@@H]2CO)[C@H](O)[C@@H](O)[C@H]1O (stereo partly shown) [Papulacandin]	10	20	more sensitive	10	–	–	–	–	–
CO[C@H]1C[C@@H]2CC[C@@H](C)[C@@](O)(O2)C(=O)C(=O)N2CCCC[C@H]2C(=O)O[C@H]([C@H](C)C[C@@H]2CC[C@@H](O)[C@H](OC)C2)CC(=O)[C@H](C)/C=C(\C)[C@@H](O)[C@@H](OC)C(=O)[C@H](C)C[C@H](C)/C=C/C=C/C=C/1C [Rapamycm, rapamycin]	0.0	13	more sensitive	0.0	–	–	–	–	–
CC[C@H](C)C[C@H](C)CCCCCCCCC(=O)N[C@@H]1C[C@@H](O)[C@@H](O)NC(=O)[C@@H]2[C@@H](O)[C@@H](C)CN2C(=O)[C@H]([C@H](O)CC(N)=O)NC(=O)[C@H]([C@H](O)[C@@H](O)c2ccc(O)cc2)NC(=O)[C@@H]2C[C@@H](O)CN2C(=O)[C@H]([C@@H](C)O)NC1=O [L-671,329] ({Tetradecanoyl(10R,12S-Me2)}-[dOrn(4R-OH,5R-OH)]T[Hyp][hTyr(3S-OH,4S-OH)][Gln(3R-OH)][Pro(3S-OH,4S-Me)]; lactam 1-C)	–	–	–	–	effective in reducing the number of cysts	–	–	–	–
C[C@@H]([C@H](N)C(=O)N[C@H](C(=O)O)[C@H]1O[C@@H](n2ccc(=O)[nH]c2=O)[C@H](O)[C@@H]1O)[C@H](O)c1ccc(O)cn1 [Nikkomycin Z]	0.0	0.0	–	30.0	–	1000	–	–	–
Nc1nc2c(ncn2[C@@H]2O[C@H](COP(=O)(O)OP(=O)(O)OP(O)(O)=S)[C@@H](O)[C@H]2O)c(=O)[nH]1 [GTPγS, guanosine 5'-(g-thio) triphosphate]	–	–	–	–	–	–	responded rather poorly	6	~19
Aculeacin	15	9	–	0.0	–	–	–	–	–
